Assay in all cases: Antibacterial effect, dilution method on Mueller-Hinton agar (MIC)
Assay type in all cases: cell-based

Experiment [1] has as its system Staphilococcus aureus 209-P.
The test system of experiment [2] is Escherichia coli NIHJ C-2. The note with it: NIHJC2.
The test system of experiment [3] is Krebsiella pneumoniae 8045.
In another experiment the test system is Serratia marcescens T-26. The note with it: T26.
A further experiment concerns Proteus vulgaris 6897.
Another experiment concerns Proteus morganii 4298. The note with it: Morganella morganii.
For another experiment, the system named is Proteus rettgeri 4289. The following applies: Providencia rettgeri.
For experiment [4], the system named is Enterobacter aerogenes F-1948. The following applies: Klebsiella aerogenes, F1948.
In experiment [5] the test system is Pseudomonas aerginosa 145.
For experiment [6], the system named is Pseudomonas sepatia F-2251. The following applies: F2251.
For experiment [7], the system named is Pseudomonas maltphilia F-3438. The following applies: F3438.

Converted amounts (≈) assume the structure as drawn.

The source of these data is EP0082501A1, “Beta-lactam compound and a pharmaceutical composition containing the same” (KYOWA HAKKO KOGYO CO., LTD, priority 1981, dated 1983).

In general, MIC refers to the lowest concentration found to suppress growth. A low value points to inhibition by little substance.

For the molecule `CO/N=C(\C(=O)N[C@@H]1C(=O)N2C(C(=O)O)=C[C@H](Sc3nnnn3C)C[C@H]12)c1csc(N)n1` [Ex.15, [4R,6R,7S]-7-[2-(2-amino-4-thiazolyl)-2-syn-methoxyiminoacetamido]-4-(1-methyl-1,2,3,4-tetrazol-5-yl)-thio-1-azabicyclo[4,2,0]oct-2-en-8-oxo-2-carboxylic acid], the minimum inhibitory concentration (MIC) in experiment [1] was 6.25 µg/mL (≈ 13 µM); in experiment [2], 0.1 µg/mL (≈ 0.209 µM); in [3] it was 0.02 µg/mL (≈ 0.0417 µM); in the experiment with Serratia marcescens T-26, 6.25 µg/mL (≈ 13 µM); against Proteus vulgaris 6897 it was not above 0.01 µg/mL; in the experiment on Proteus morganii 4298, not above 0.01 µg/mL. The MIC was not above 0.01 µg/mL in the experiment on Proteus rettgeri 4289; 50 µg/mL (≈ 104 µM) in experiment [4]; 12.5 µg/mL (≈ 26.1 µM) in experiment [5]; 25 µg/mL (≈ 52.1 µM) in [6]; more than 100 µg/mL in experiment [7].

Regarding `CO/N=C(\C(=O)N[C@@H]1C(=O)N2C(C(=O)O)=C[C@@H](Sc3ccncc3)C[C@H]12)c1csc(N)n1` [Ex.23, sodium [4S,6R,7S]-7-[2-(2-amino-thiazol-4-yl)-2-syn-methoxyimino]-acetamido-4-(pyridin-4-yl)-thio-1-azabicyclo[4,2,0]oct-2-en-8-oxo-2-carboxylate], the MIC in experiment [1] is 3.13 µg/mL; in experiment [2], 0.39 µg/mL; in experiment [3] it was 0.2 µg/mL; against Serratia marcescens T-26 it was 25 µg/mL; in the experiment with Proteus vulgaris 6897, not above 0.01 µg/mL; in the experiment on Proteus morganii 4298, 0.2 µg/mL. Moreover, the MIC against Proteus rettgeri 4289 was 0.02 µg/mL; in experiment [4], 50 µg/mL; in experiment [5] it was 12.5 µg/mL; in experiment [6], 12.5 µg/mL; in experiment [7], more than 100 µg/mL.

Consider `CO/N=C(\C(=O)N[C@@H]1C(=O)N2C(C(=O)O)=C[C@@H](N=[N+]=[N-])C[C@H]12)c1csc(N)n1` [Ex.26, [4S,6R,7S]-7-[2-(2-amino-4-thiazolyl)-2-syn-methoxyiminoacetamido]-4-azido-1-azabicyclo[4,2,0]oct-2-en-8-oxo-2-carboxylic acid], for which the MIC in experiment [1] was 6.25 µg/mL (≈ 15.4 µM); in experiment [2], 0.05 µg/mL (≈ 0.123 µM); in [3], 0.02 µg/mL (≈ 0.0492 µM); with Serratia marcescens T-26 it was 6.25 µg/mL (≈ 15.4 µM); against Proteus vulgaris 6897 it was not above 0.01 µg/mL; against Proteus morganii 4298 it was 0.02 µg/mL (≈ 0.0492 µM). Besides, the MIC in the experiment on Proteus rettgeri 4289 is not above 0.01 µg/mL; in experiment [4], 25 µg/mL (≈ 61.5 µM); in [5], 12.5 µg/mL (≈ 30.8 µM); in experiment [6] it was 25 µg/mL (≈ 61.5 µM); in experiment [7], more than 100 µg/mL.

As to `CC(=O)Oc1ccc(C(=O)O/N=C(\C(=O)N[C@@H]2C(=O)N3C(C(=O)O)=C[C@H](N=[N+]=[N-])C[C@H]23)c2csc(N)n2)cc1OC(C)=O` [Ex. 6, [4R,6R,7S]-7-[2-(2-amino-4-thiazolyl)-2-syn-(3,4-diacetoxy)-benzoyloxyimino-acetamido]-4-azido-l-azabicyclo[4,2,0]oct-2-en-8-oxo-2-carboxylic acid], the MIC is 3.13 µg/mL (≈ 5.11 µM) in experiment [1]; 0.05 µg/mL (≈ 0.0816 µM) in experiment [2]; 0.02 µg/mL (≈ 0.0327 µM) in experiment [3]; 0.05 µg/mL (≈ 0.0816 µM) against Serratia marcescens T-26; not above 0.01 µg/mL in the experiment with Proteus vulgaris 6897; 0.05 µg/mL (≈ 0.0816 µM) in the experiment with Proteus morganii 4298. Moreover, the MIC in the experiment with Proteus rettgeri 4289 was not above 0.01 µg/mL; in [4] it was 3.13 µg/mL (≈ 5.11 µM); in [5], 0.1 µg/mL (≈ 0.163 µM); in [6] it was 0.02 µg/mL (≈ 0.0327 µM); in [7], 25 µg/mL (≈ 40.8 µM).

As for `CO/N=C(\C(=O)N[C@@H]1C(=O)N2C(C(=O)O)=C[C@H](Sc3nnnn3-c3ccccc3)C[C@H]12)c1csc(N)n1` [Ex. 13, [4R,6R,7S]-7-[2-(2-amino-4-thiazolyl)-2-syn-methoxyiminoacetamido]-4-(1-phenyl-1,2,3,4-tetrazol-5-yl)-thio-l-azabicyclo[4,2,0]oct-2-en-8-oxo-2-carboxylic acid], the MIC stood at 3.13 µg/mL (≈ 5.78 µM) in experiment [1]; 0.78 µg/mL (≈ 1.44 µM) in experiment [2]; 0.39 µg/mL (≈ 0.72 µM) in experiment [3]; 6.25 µg/mL (≈ 11.5 µM) in the experiment on Serratia marcescens T-26; 0.02 µg/mL (≈ 0.0369 µM) in the experiment with Proteus vulgaris 6897; 0.78 µg/mL (≈ 1.44 µM) against Proteus morganii 4298. The MIC was 0.2 µg/mL (≈ 0.369 µM) against Proteus rettgeri 4289; 50 µg/mL (≈ 92.3 µM) in [4]; 12.5 µg/mL (≈ 23.1 µM) in experiment [5]; 25 µg/mL (≈ 46.2 µM) in [6]; more than 100 µg/mL in experiment [7].

Regarding `CO/N=C(\C(=O)N[C@@H]1C(=O)N2C(C(=O)O)=C[C@H](N=[N+]=[N-])C[C@H]12)c1csc(N)n1` [Exs. 5 and 17, [4R, 6R, 7S]-7-[2-(2-amino-4-thiazolyl)-2-syn-methoxyiminoacetamido]-4-azido-1-azabicyclo [4,2,0]oct-2-en-8-oxo-2-carboxylic acid], the MIC in experiment [1] was 1.56 µg/mL (≈ 3.84 µM); in experiment [2] it was 0.1 µg/mL (≈ 0.246 µM); in experiment [3], 0.02 µg/mL (≈ 0.0492 µM); in the experiment with Serratia marcescens T-26, 6.25 µg/mL (≈ 15.4 µM); against Proteus morganii 4298, not above 0.01 µg/mL; in [4], 25 µg/mL (≈ 61.5 µM). The MIC in experiment [5] is 6.25 µg/mL (≈ 15.4 µM); in [6], 12.5 µg/mL (≈ 30.8 µM); in [7], more than 100 µg/mL.
